According to US20240033358A1, “COMBINATION THERAPIES WITH CHIMERIC ANTIGEN RECEPTOR (CAR)-EXPRESSING CELLS” (Novartis AG, priority 2020, published 2024):

Columns and labels:
[1] = test system: SuDHL6 cells implanted subcutaneously; assay: In vivo double-hit lymphoma model: tumor volume after CART19 cells and/or BCL2 inhibitor; parameters: species or system NOD scid gamma (NSG) mice; conditions: treatment from day 15 post-implant; venetoclax 100 mg/kg daily; 1e6 CART19 cells; versus PBS vehicle, UTD or CART19 alone
Protocol: NOD scid gamma (NSG) mice were implanted subcutaneously with a dose of 5e6 SuDHL6 cells/mouse. At day 15 post-implant, mice were randomized into treatment groups, which included: PBS vehicle negative control (FIG. 10A); PBS vehicle and 100 mg/kg of the BCL2 inhibitor, venetoclax (FIG. 10A); 1.45e6 untransduced T cells containing no CAR (UTD) (FIG. 10B); 1.45e6 untransduced T cells containing no CAR (UTD) and 100 mg/kg of the BCL2 inhibitor, venetoclax (FIG. 10B); 1e6 CART19 cells (which were at 68% positivity, total cells injected were 1.45e6) (FIG. 10C); and 1e6 CART19 cells and 100 mg/kg of the BCL2 inhibitor, venetoclax (FIG. 10C). The BCL2 inhibitor was administered daily until sacrifice. Tumor growth was monitored in these mice every three days. Tumor volume was quantified by caliper measurement at each timepoint sampled (FIGS. 10A-C).

[2] = test system: adult patients with r/r DLBCL; assay: JULIET phase 2 trial of tisagenlecleucel: efficacy outcomes (BOR, M3 response, DOR, PFS, OS), safety and B-cell recovery, overall and by subgroup (MYC, DH/TH, TME, pre-infusion LDH); format: in vivo, human; conditions: for probability of PFS: MYC(−) patients with normal pre-infusion LDH (n=16); for Survival probability: all infused patients
Description: Methods: JULIET (NCT02445248) was a global, phase 2 trial of autologous anti-CD19 CAR-T cell therapy in adult patients with r/r DLBCL (relapsed or refractory to ≥2 prior lines of therapy). Median follow-up was 40.3 months. The relationship between MYC overexpression, tumor microenvironment (TME) characteristics (including CD3+ T-cell infiltration, myeloid-derived suppressor cells [MDSCs], and LAG3 expression by fluorescent immunohistochemistry [IHC]), activated B-cell/germinal center B-cell [ABC/GCB] subtype, double/triple-hit (DH/TH) status, and gene mutations including TP53 with efficacy outcomes (best overall response [BOR], response at Month 3 [M3], progression-free and overall survival [PFS/OS]) were assessed. Results: 115 patients received autologous anti-CD19 CAR-T cell infusion. Among patients who were in CR at 6 months, 86% were estimated to maintain the response at 36 months. […] Median OS among all 115 infused patients was 11.1 months (95% CI, 6.6-23.9). […] Median OS of patients with CR (n=37) or PR (n=7) at M3 was not reached; 80% of patients with complete response (CR) had OS benefit≥20 months. […] Of the 23 patients with ongoing CR and B-cell count available, 11 had CD19+ B cells recovered back to normal (80 cells/μL) after 1 year, with similar patterns observed for CD20+ and CD22+ B cells (FIG. 21). The 24 month and 42 month PFS was 33% and 31% respectively (FIG. 16).
Of the 111 patients whose baseline tumor biopsies were tested for MYC expression by immunohistochemistry (IHC), 73 patients were positive for MYC expression (MYC(+) defined as >40% of cells expressing MYC, as measured by IHC) and 38 patients were negative for MYC expression (MYC(−) defined as <40% of cells expressing MYC, as measured by IHC). BOR rates for MYC(+) and MYC(−) patients were 44% (95% CI, 32-56) and 63% (95% CI, 46-78), respectively; M3 response rates were 30% (95% CI, 20-42) and 50% (95% CI, 33-67), respectively (Table 6, and FIG. 14). By month 6, 18/38 (47%) MYC(−) patients were CR/PR compared to 18/73 (25%) of MYC(+) patients. DOR was in a plateau phase at 79% starting in MYC(−) patients (n=24) at 6 months. […] Thus, MYC(+) patients tended to have shorter PFS and OS compared with MYC(−) patients and a high-baseline of MYC expression in patients prior to treatment was associated with worse PFS and OS (FIGS. 4A-4C).
Of the 73 MYC(+) patients, 70 of them were also tested for rearrangements in MYC, BCL2, and BCL6 by FISH in order to identify double hit (DH) (MYC/BCL2 or MYC/BCL6) or triple hit (TH) (MYC/BCL2/BCL6) lymphomas. Of the 70 MYC(+) patients, 20 had DH/TH lymphoma and a BOR rate of 40% (95% CI, 19-64). BOR rate for patients that were MYC(+) but non-DH/TH lymphoma was 48% (95% CI, 34-63).
In the TME analysis of baseline biopsy, a low frequency of tumor infiltrating CD3+ T cells (cutoff of ≤3%; n=16) was associated with shorter median DOR, PFS (2.2 months [95% CI, 0.92-2.8] and 4.2 months [95% Cl, 2.6-21], respectively) and OS (7 months [95% CI, 1.8-12] and 21 months [95% CI, 6.7-NE], respectively) compared with patients with ≥3% CD3+ T cells (n=64) (FIGS. 13A-13C). At month 6, only 2/16 (13%) of patients with <3% tumor-infiltrating CD3+ T cells in baseline tumors were responders compared to 23/36 (64%) responders with >3% tumor infiltrating CD3+ T cells. Patients with low or no (≤3%) tumor-infiltrating CD3+ T cells (n=16) in baseline tumor biopsies were enriched with non-responders (FIG. 22).
Patients with the highest frequency of LAG3+CD3+ cells out of the tumor infiltrating CD3+ T cell population (cutoff of >20%; n=12) at baseline were mostly non-responders at Month 3 (FIG. 23) and all 12 patients with >20% LAG3+CD3+ cells (out of the tumor infiltrating CD3+ T cells) were non-responders at Month 6.
The probability of PFS in MYC(−) patients with normal LDH (n=16) was 81% at 6 months and stabilized at 75% starting at 12 months.

[3] = LAG3+CD3+ out of CD3+ T cells ≥20% at baseline (n=12)
[4] = MYC(+) DH/TH patients (n = 20), r/r DLBCL, JULIET
[5] = MYC(+) Non-DH/TH patients (n = 50), r/r DLBCL, JULIET
[6] = MYC(−) patients (n = 38), r/r DLBCL, JULIET
[7] = baseline tumor infiltrating CD3+ T cells ≤3% (n=16)
[8] = of patients with a CR at 6 months
[9] = patients with <20% LAG3+CD3+ T cells (n=68)
[10] = patients with ≥3% CD3+ T cells (n=64)

## 4-(4-{[2-(4-chlorophenyl)-4,4-dimethylcyclohex-1-en-1-yl]methyl}piperazin-1-yl)-N-(3-nitro-4-{[(oxan-4-yl)methyl]amino}benzenesulfonyl)-2-{1H-pyrrolo[2,3162yridinedin-5-yloxy}benzamide [venetoclax]
[1]
  tumor growth (tumor volume by caliper): slowed tumor growth

## Tisagenlecleucel
[2]; 24 month
  PFS: 33%
[2]; 42 month
  PFS: 31%
[2]; 61 patients with a response, 95% CI, 10-NE
  median duration of response (DOR): not reached
[2]; [3]
  median OS: 4.3 months
  median PFS: 2.1 months
[2]; [4]
  Best Overall Response (BOR), % (95% CI): 40 (19-64) %
  Response at Month 3 (M3), % (95% CI): 20 (6-44) %
[2]; [5]
  Best Overall Response (BOR), % (95% CI): 48 (34-63) %
  Response at Month 3 (M3), % (95% CI): 36 (23-51) %
[2]; MYC(+) patients
  median DOR: 19 months
  median OS: 7.8 months
  median PFS: 2.5 months
[2]; MYC(+) patients (n = 73)
  Best Overall Response (BOR), % (95% CI): 44 (32-56) %
  Response at Month 3 (M3), % (95% CI): 30 (20-42) %
[2]; MYC(+) patients with DH/TH lymphoma (n=20)
  BOR rate: 40%
[2]; MYC(+) patients, 18/73
  patients CR/PR by month 6: 25%
[2]; MYC(−) patients
  median DOR: not reached
  median OS: 21 months
  median PFS: 6.2 months
[2]; MYC(−) patients (n = 38)
  Best Overall Response (BOR), % (95% CI): 63 (46-78) %
  Response at Month 3 (M3), % (95% CI): 50 (33-67) %
[2]; [6]
  Best Overall Response (BOR), % (95% CI): 63 (46-78) %
  Response at Month 3 (M3), % (95% CI): 50 (33-67) %
[2]; MYC(−) patients (n=24), starting at 6 months
  DOR plateau phase: 79%
[2]; at 6 months
  probability of PFS: 81%
[2]; stabilized starting at 12 months
  probability of PFS: 75%
[2]; MYC(−) patients, 18/38
  patients CR/PR by month 6: 47%
[2]; all 115 infused patients
  median OS: 11.1 months
[2]; among patients who were in CR at 6 months
  patients estimated to maintain the response at 36 months: 86%
[2]; among the 61 patients with a response, at 24 and 30 months
  relapse-free probability: 60.4%
[2]; at 1 month post-treatment
  responses across B-cell lymphoma subsets (MYC positive, MYC negative, DH/TH): comparable
[2]; at 12 months
  Survival probability: 48.2%
[2]; at 24 months
  Survival probability: 40.4%
[2]; at 36 months
  Survival probability: 36.2%
[2]; [7]
  median OS: 7 months
  median PFS: 2.2 months
[2]; median follow-up 40.3 months
  safety signals: No new safety signals
[2]; [8]
  patients with a relapse after 12 months: 1
  patients with relapses after 6 months: 3
[2]; patients MYC(+) but non-DH/TH lymphoma
  BOR rate: 48%
[2]; patients identified as MYC positive by IHC
  patients maintaining longer than a 6 month response: less than 75%
[2]; patients with <3% tumor-infiltrating CD3+ T cells in baseline tumors, 2/16
  responders at month 6: 13%
[2]; [9]
  median OS: 21 months
  median PFS: 4.2 months
[2]; patients with >3% tumor infiltrating CD3+ T cells, 23/36
  responders at month 6: 64%
[2]; patients with CR
  patients with complete response (CR) with OS benefit ≥20 months: 80%
[2]; patients with CR (n=37) or PR (n=7) at M3
  median OS: not reached
[2]; patients with DH/TH lymphoma
  PFS and OS compared with other patients: shorter progression free survival (PFS) and overall survival (OS)
  response rate at M3: 20%
[2]; patients with DH/TH lymphomas and high MYC expression, at 3 months and 6 months
  relapse frequency: appeared to relapse more frequently
[2]; patients with MYC(+) but non-DH/TH lymphoma
  response rate at M3: 36%
[2]; [10]
  median OS: 21 months
  median PFS: 4.2 months
[2]; the 12 patients with >20% LAG3+CD3+ cells out of tumor infiltrating CD3+ T cells
  patients who were non-responders at Month 6: 12
